Assay results as given in patent US8349868B2, “Azaquinolones that inhibit prolyl hydroxylase” (Amgen Inc., priority 2007, dated 2013).
pIC50: −log10 of the molar value.

What was measured:
Format in all cases: biochemical
HIF PHD2 = HIF PHD2 (Homo sapiens, UniProt Q9GZT9); test: PHD2 inhibition assay, TR-FRET detection with VCB-Eu
Procedure: Inhibition of HIF PHD2 activity was quantified utilizing the TR-FRET technology. HIF PHD2 catalyzes a hydroxyl modification on the proline residue of the P564-HIF1α peptide substrate (Biotin-[…] (SEQ ID NO: 7)) resulting in recognition and binding of the europylated Von Hippel-Lindau protein (pVHL), elongin B and elongin C heterotrimeric (VCB-Eu) complex.
The PHD2 inhibition assay was executed by addition of freshly dissolved FeCl2 to 178.57 μM (100 μM final concentration) in PHD2 Reaction Buffer containing 30 mM MES, pH 6, 10 mM NaCl, 0.25% Brij-35, 0.01% BSA, and 1% DMSO. 28 μL of the iron solution and 2 μL of inhibitor compounds serially diluted in 100% DMSO (5% DMSO final) were added to black polypropylene 96-well microtiter plates. To that, 10 μL of 10 nM PHD2 (2 nM final) was added to all wells of the plate except for the 8 wells of column 12 (LO control), and allowed to incubate at room temperature on the shaker for one hour. Column 6 was the HI control containing PHD2 enzyme and 5% DMSO vehicle, but no inhibitor compound. To initiate the PHD2 enzymatic reaction, 10 μL of a solution containing 500 nM P564-HIF1α peptide (100 nM final), 10 mM ascorbic acid (2 mM final), and 1.25 μM 2-oxoglutarate (α-ketoglutarate; 0.25 μM final) in PHD2 Reaction Buffer was added to all wells of the plate and allowed to incubate on the shaker at room temperature for one hour.
The reaction was terminated by addition of 25 μL TR-FRET Buffer (50 mM TRIS-HCl, pH 9, 100 mM NaCl, 0.05% BSA, and 0.5% Tween-20) containing 150 mM succinate (product inhibitor; 50 mM final), 75 nM streptavidin-APC (25 nM final), and 7.5 nM VCB-Eu (2.5 nM final). The TR-FRET detection reagents were placed on a shaker for 1 hour to reach binding equilibrium before reading on the Discovery platform (PerkinElmer). Europium is excited at 315 nm and phosphoresces at 615 nm with a large Stoke's shift. APC, in turn, emits at 655 nm upon excitation at 615 nm. The TR-FRET signal is measured as the ratio of the APC 655 nm signal divided by the internal europium reference 615 nm emission signal.
The POC (percentage of control) was determined by comparing the signal from hydroxylated peptide substrate in the enzyme reaction containing inhibitor compound with that from PHD2 enzyme with DMSO vehicle alone (HI control), and no enzyme (LO control). POC was calculated using the formula: % control (POC)=(cpd−average LO)/(average HI−average LO)*100. Data (consisting of POC and inhibitor concentration in μM) was fitted to a 4-parameter equation (y=A+((B−A)/(1+((x/C)^[…]))), where A is the minimum y (POC) value, B is the maximum y (POC), C is the x (cpd concentration) at the point of inflection and D is the slope factor) using a Levenburg-Marquardt non-linear regression algorithm.

[1] = biological target: T1, Collagen Prolyl Hydroxylase I (CPH1) (Homo sapiens, UniProt P13674); test: Collagen prolyl hydroxylase I activity by radiometric HPLC measurement of 2-oxoglutarate conversion to succinic acid; conditions: Table 5; 50 μM 2-oxoglutarate, 100 μM PPG10, 10 μM FeSO4
T1 construct: made in house; host or cells: Trichoplusia ni insect cells (baculovirus)
Procedure: Product inhibition was not evident. Compounds were dissolved and serially diluted in 100% DMSO for potency determination. Assay Buffer consisted of Tris-HCl, pH 7.5, 0.2 mM DTT, and 0.5 mg/ml catalase. PPG10 peptide was dissolved in 0.25% acetic acid and denatured by boiling for 5 minutes then placed on ice for 5 minutes. The denatured PPG10 was then pre-mixed with 1 M ascorbate, prepared in water, and the mixture diluted with Assay Buffer to yield a working solution of 5× peptide and ascorbate. FeSO4 was freshly dissolved in water and diluted to a 2.8× concentration in Assay Buffer. Enzyme stocks were diluted to a 5× concentration in Assay Buffer. Example compounds plus FeSO4 solution were mixed, followed by addition of 5× enzyme solutions. After 10 minutes gentle mixing at room temperature, the 5× peptide solution was added. After another 10 minutes gentle mixing at room temperature, a 5× stock of 2-OG was added to initiate the reaction. Final concentrations in the assay were: 50 mM Tris-HCl, pH 7.5, 0.2 mM DTT, 0.5 mg/mL catalase, 10 μM FeSO4, 100 μM PPG10, 50 μM 5-[^14C]-2-oxoglutarate (23-37 cpm/μmol), 1 mM ascorbate, and 4% DMSO. Reactions were gently mixed at room temperature for 1 hour and terminated by addition of an equal volume of 0.02 NH2SO4.
A portion of each terminated reaction was auto-injected into a Polypore H column (PerkinElmer, Waltham, Mass.) at a rate of 0.3 mL/min with 0.01 N H2SO4 as the mobile phase. […] An Agilent 1100 HPLC System with dual quaternary pumps, column switching valve, and dual columns was used to resolve product from substrate. The Agilent 1100 Multiple Wavelength Detector indicated UV absorption of the substrate and product peaks at 210 nm and a Beta-RAM Model 2 radiation detector with In-Flow 2:1 scintillation cocktail (IN/US Systems Inc.) enabled quantitation of the 2 radioactive peaks. Laura Lite software (IN/US, Tampa, Fla.) was used to collect and analyze radiometric data. AUC measurements were converted to percent turnover of 2-OG. To standardize across studies, 2-OG conversion was normalized to percent of control (POC) values using reactions that lacked enzyme or inhibitor as low and high controls, respectively. POC data was fitted to the 4-parameter logistic model (A+((B−A)/(1+((x/C)^D)))) using ActivityBase (IDBS, Alameda Calif.) where A is the minimum POC value, B is the maximum POC value, D is the slope factor, and C is compound concentration at the inflection point (IC50, micromolar).

[2] = biological target: T2, Collagen Prolyl Hydroxylase II (CPH2) (Homo sapiens, UniProt O15460); test: Collagen prolyl hydroxylase II activity by radiometric HPLC measurement of 2-oxoglutarate conversion to succinic acid; conditions: Table 5; 50 μM 2-oxoglutarate, 100 μM PPG10, 10 μM FeSO4
T2 construct: made in house; host or cells: Trichoplusia ni insect cells (baculovirus)
Procedure: Assay conditions were established in separate studies to define dependence on dithiothreitol (DTT), ascorbate, and catalase, and to define reaction linearity and Km values for 2-oxoglutarate (2-OG; PerkinElmer LAS, Shelton, Conn. or Moravek Biochemicals, Brea, Calif.), FeSO4, and (Pro-Pro-Gly)10 peptide (PPG10; Peptides International, Louisville, Ky.). […] Product inhibition was not evident. Compounds were dissolved and serially diluted in 100% DMSO for potency determination. Assay Buffer consisted of Tris-HCl, pH 7.5, 0.2 mM DTT, and 0.5 mg/ml catalase. PPG10 peptide was dissolved in 0.25% acetic acid and denatured by boiling for 5 minutes then placed on ice for 5 minutes. The denatured PPG10 was then pre-mixed with 1 M ascorbate, prepared in water, and the mixture diluted with Assay Buffer to yield a working solution of 5× peptide and ascorbate. FeSO4 was freshly dissolved in water and diluted to a 2.8× concentration in Assay Buffer. Enzyme stocks were diluted to a 5× concentration in Assay Buffer. Example compounds plus FeSO4 solution were mixed, followed by addition of 5× enzyme solutions. After 10 minutes gentle mixing at room temperature, the 5× peptide solution was added. After another 10 minutes gentle mixing at room temperature, a 5× stock of 2-OG was added to initiate the reaction. Final concentrations in the assay were: 50 mM Tris-HCl, pH 7.5, 0.2 mM DTT, 0.5 mg/mL catalase, 10 μM FeSO4, 100 μM PPG10, 50 μM 5-[^14C]-2-oxoglutarate ([…]), 1 mM ascorbate, and 4% DMSO. Reactions were gently mixed at room temperature for 1 hour and terminated by addition of an equal volume of 0.02 NH2SO4. Unless otherwise indicated, all reagents were obtained from Sigma and were the highest grade available.
A portion of each terminated reaction was auto-injected into a Polypore H column (PerkinElmer, Waltham, Mass.) at a rate of 0.3 mL/min with 0.01 N H2SO4 as the mobile phase. The HPLC method employed exploits the difference in pKa of the 2-OG and SA carboxylates to chromatographically separate substrate from product at low pH on ion-exchange resin, as described by Cunliffe, et al (Biochem J., 240, 617-619 (1986)) and Kaule and Gunzler (Anal. Biochem., 184, 291-297 (1990)). An Agilent 1100 HPLC System with dual quaternary pumps, column switching valve, and dual columns was used to resolve product from substrate. The Agilent 1100 Multiple Wavelength Detector indicated UV absorption of the substrate and product peaks at 210 nm and a Beta-RAM Model 2 radiation detector with In-Flow 2:1 scintillation cocktail (IN/US Systems Inc.) enabled quantitation of the 2 radioactive peaks. Laura Lite software (IN/US, Tampa, Fla.) was used to collect and analyze radiometric data. AUC measurements were converted to percent turnover of 2-OG. To standardize across studies, 2-OG conversion was normalized to percent of control (POC) values using reactions that lacked enzyme or inhibitor as low and high controls, respectively. POC data was fitted to the 4-parameter logistic model (A+((B−A)/(1+((x/C)^D)))) using ActivityBase (IDBS, Alameda Calif.) where A is the minimum POC value, B is the maximum POC value, D is the slope factor, and C is compound concentration at the inflection point (IC50, micromolar).
The Baculovirus Expression Vector System (BEVS) from Invitrogen was used to express collagen prolyl 4-hydroxylase (CPH) in Trichoplusia ni insect cells. Active collagen prolyl 4-hydroxylase is an oligomeric protein that exists as an α2β2 tetramer. The alpha subunits incorporated into the tetramer can be either collagen prolyl 4-hydroxylase α1 (GenBank reference sequence NM_000917) or collagen prolyl 4-hydroxylase α2 (GenBank reference sequence NM_004199). The beta subunit, collagen prolyl 4-hydroxylase β (GenBank reference sequence NM_000918), is common to both forms of the tetramer. […]

[3] = Table 5, Example and Comparative Compounds
[4] = Table 4, TR-FRET, 2 nM PHD2, 100 nM P564-HIF1α peptide, 0.25 μM 2-oxoglutarate

T1 sequence (P13674 18-534 isoform P13674-2): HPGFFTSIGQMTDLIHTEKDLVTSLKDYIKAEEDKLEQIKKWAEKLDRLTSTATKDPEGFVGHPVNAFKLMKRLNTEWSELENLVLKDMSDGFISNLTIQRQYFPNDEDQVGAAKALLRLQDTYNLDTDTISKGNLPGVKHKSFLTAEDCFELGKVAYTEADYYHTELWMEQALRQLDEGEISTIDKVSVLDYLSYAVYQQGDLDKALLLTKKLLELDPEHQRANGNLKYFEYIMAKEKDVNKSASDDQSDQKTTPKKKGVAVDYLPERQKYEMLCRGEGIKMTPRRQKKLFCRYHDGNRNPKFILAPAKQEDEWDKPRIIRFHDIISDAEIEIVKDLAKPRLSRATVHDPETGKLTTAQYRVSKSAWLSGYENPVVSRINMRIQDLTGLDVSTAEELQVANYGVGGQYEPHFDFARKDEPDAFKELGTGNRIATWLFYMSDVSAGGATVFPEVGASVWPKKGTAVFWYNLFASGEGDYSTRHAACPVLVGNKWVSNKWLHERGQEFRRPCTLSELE
T1 sequence (P07237 18-508 partner): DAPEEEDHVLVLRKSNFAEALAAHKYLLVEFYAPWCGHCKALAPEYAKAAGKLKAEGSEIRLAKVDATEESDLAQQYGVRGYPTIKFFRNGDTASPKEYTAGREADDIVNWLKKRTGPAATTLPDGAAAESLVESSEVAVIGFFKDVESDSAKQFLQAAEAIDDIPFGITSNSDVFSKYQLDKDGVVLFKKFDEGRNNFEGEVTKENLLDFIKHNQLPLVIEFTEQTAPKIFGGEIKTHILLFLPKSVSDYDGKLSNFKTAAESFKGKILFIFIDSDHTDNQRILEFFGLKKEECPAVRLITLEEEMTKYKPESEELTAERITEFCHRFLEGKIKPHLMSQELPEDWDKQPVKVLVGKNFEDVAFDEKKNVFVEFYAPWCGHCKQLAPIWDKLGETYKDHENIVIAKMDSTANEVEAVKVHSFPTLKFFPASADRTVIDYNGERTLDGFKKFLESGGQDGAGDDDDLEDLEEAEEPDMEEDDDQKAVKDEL
T2 sequence (O15460 22-533 isoform O15460-2): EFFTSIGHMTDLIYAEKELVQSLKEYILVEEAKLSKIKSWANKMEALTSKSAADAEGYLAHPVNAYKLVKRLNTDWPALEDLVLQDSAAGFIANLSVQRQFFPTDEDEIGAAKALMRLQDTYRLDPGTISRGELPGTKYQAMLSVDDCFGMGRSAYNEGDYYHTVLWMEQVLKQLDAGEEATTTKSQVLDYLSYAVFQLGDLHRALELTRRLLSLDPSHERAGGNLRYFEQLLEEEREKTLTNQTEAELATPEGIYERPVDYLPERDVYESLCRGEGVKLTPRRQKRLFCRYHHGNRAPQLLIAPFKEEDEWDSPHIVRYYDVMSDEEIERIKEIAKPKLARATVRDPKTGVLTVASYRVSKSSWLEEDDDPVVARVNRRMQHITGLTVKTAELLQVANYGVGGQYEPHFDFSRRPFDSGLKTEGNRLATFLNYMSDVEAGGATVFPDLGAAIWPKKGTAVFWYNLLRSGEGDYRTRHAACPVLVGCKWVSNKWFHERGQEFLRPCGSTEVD
T2 sequence (P07237 18-508 partner): as the sequence (P07237 18-508 partner) above
Sequence of HIF PHD2 (Q9GZT9 whole entry): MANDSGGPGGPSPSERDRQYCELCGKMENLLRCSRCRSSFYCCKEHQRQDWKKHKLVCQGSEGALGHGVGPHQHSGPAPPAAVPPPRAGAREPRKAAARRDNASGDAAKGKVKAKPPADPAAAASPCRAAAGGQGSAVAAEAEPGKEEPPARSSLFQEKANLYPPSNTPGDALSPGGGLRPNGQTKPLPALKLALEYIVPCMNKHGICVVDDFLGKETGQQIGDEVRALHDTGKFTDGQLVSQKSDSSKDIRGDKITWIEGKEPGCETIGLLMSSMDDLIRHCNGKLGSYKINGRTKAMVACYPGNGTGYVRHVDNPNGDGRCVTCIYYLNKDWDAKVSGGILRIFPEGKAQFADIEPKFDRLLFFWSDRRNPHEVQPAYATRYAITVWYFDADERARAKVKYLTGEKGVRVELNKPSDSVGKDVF

Structure (SMILES)	pIC50 (HIF PHD2; [3])	pIC50 [1]	pIC50 [2]	pIC50 (HIF PHD2; [4])
Cn1c(=O)c(C(=O)NCC(=O)O)c(O)c2c(Br)cccc21 [Comparative Compound 1, reference compound]	6.73	6.47	7.24	–
Cn1c(=O)c(C(=O)CCC(=O)O)c(O)c2cccc(Br)c21 [Example 2, 4-(8-bromo-4-hydroxy-1-methyl-2-oxo-1,2-dihydroquinolin-3-yl)-4-oxobutanoic acid]	–	4.64	5.73	6.11
Cn1c(=O)c(C(=O)NCC(=O)O)c(O)c2ccc(Br)cc21 [Comparative Example 3, reference compound]	7.34	6.45	6.95	–
Cn1c(=O)c(C(=O)CCC(=O)O)c(O)c2ccc(-c3ccc(C(=O)O)cc3)cc21 [Example 11, 4-(3-(3-carboxypropanoyl)-4-hydroxy-1-methyl-2-oxo-1,2-dihydroquinolin-7-yl)benzoic acid]	–	–	–	7.94
Cn1c(=O)c(C(=O)NCC(=O)O)c(O)c2cc(Br)ccc21 [Comparative Compound 2, reference compound]	6.45	6.39	6.94	–
Cn1c(=O)c(C(=O)CCC(=O)O)c(O)c2ccc(Br)cc21 [Example 4, 4-(7-bromo-4-hydroxy-1-methyl-2-oxo-1,2-dihydroquinolin-3-yl)-4-oxobutanoic acid]	7.19	–	4.87	7.19
Cn1c(=O)c(C(=O)CCC(=O)O)c(O)c2c(Br)cccc21 [Example 8, 4-(5-bromo-4-hydroxy-1-methyl-2-oxo-1,2-dihydroquinolin-3-yl)-4-oxobutanoic acid]	–	–	5.28	6.46
O=C(O)CCC(=O)c1c(O)c2ccc(F)c(F)c2n(Cc2ccccc2)c1=O [Example 6, 4-(1-benzyl-7,8-difluoro-4-hydroxy-2-oxo-1,2-dihydroquinolin-3-yl)-4-oxobutanoic acid]	–	–	–	6.87
Cn1c(=O)c(C(=O)CCC(=O)O)c(O)c2ccc(F)c(F)c21 [Example 10, 4-(7,8-difluoro-4-hydroxy-1-methyl-2-oxo-1,2-dihydroquinolin-3-yl)-4-oxobutanoic acid]	–	–	–	6.55
Cn1c(=O)c(C(=O)NCC(=O)O)c(O)c2cccc(Br)c21 [Comparative Example 4, reference compound]	6.98	6.30	6.58	–
Cn1c(=O)c(C(=O)CCC(=O)O)c(O)c2ccc(C(F)(F)F)nc21 [Example 3, 4-(4-hydroxy-1-methyl-2-oxo-7-(trifluoromethyl)-1,2-dihydro-1,8-naphthyridin-3-yl)-4-oxobutanoic acid]	–	–	–	7.19
Cn1c(=O)c(C(=O)CCC(=O)O)c(O)c2ccccc21 [Example 5, 4-(4-hydroxy-1-methyl-2-oxo-1,2-dihydroquinolin-3-yl)-4-oxobutanoic acid]	–	–	–	6.25
Cn1c(=O)c(C(=O)CCC(=O)O)c(O)c2cc(Br)ccc21 [Example 7, 4-(6-bromo-4-hydroxy-1-methyl-2-oxo-1,2-dihydroquinolin-3-yl)-4-oxobutanoic acid]	–	–	5.42	6.51
Cn1c(=O)c(C(=O)CCC(=O)O)c(O)c2cc(I)cnc21 [Example 1, 4-(4-hydroxy-6-iodo-1-methyl-2-oxo-1,2-dihydro-1,8-naphthyridin-3-yl)-4-oxobutanoic acid]	–	–	–	6.68
Cn1c(=O)c(C(=O)CCC(=O)O)c(O)c2c(F)ccc(F)c21 [Example 9, 4-(5,8-difluoro-4-hydroxy-1-methyl-2-oxo-1,2-dihydroquinolin-3-yl)-4-oxobutanoic acid]	–	–	–	6.11
